Laboratory results: patent US20200022963A1, “PHARMACEUTICAL COMPOSITION COMPRISING BETAHISTINE” (Otolanum AG, priority 2017, published 2020)
Like-named read-outs stand apart in the source and are kept apart here.

Experiment: Pharmacokinetic profile after single oral, intranasal and intravenous betahistine in beagle dogs, Example 5
Format: in vivo
Conditions: dog; for Cmax / concentration at 0 h / concentration at 5 min / concentration at 0.167 h / concentration at 0.333 h / concentration at 0.5 h / concentration at 1 h / concentration at 2 h / concentration at 3 h / concentration at 6 h / concentration at 24 h / AUC(0-t) / AUC(0-t)/D / Cmax/D / Intranasal AUC/dose / Tmax / AUC(0-inf): beagle, in vivo; for concentration at 0 h / concentration at 5 min / concentration at 0.167 h / concentration at 0.333 h / concentration at 0.5 h / concentration at 1 h / concentration at 2 h / concentration at 3 h / concentration at 6 h / concentration at 24 h: Betahistine Plasma Concentration
Description: In this study, the pharmacokinetic profile of betahistine was evaluated after a single dose administration of betahistine in male and female beagle dogs (age 5-7 months; weight of 5-11 kg, within a range of 3 kg for each sex) for three routes of administration: oral, intranasal, and intravenous.
On Day 1 of the study, betahistine (BH) was delivered orally at a dose of 12 mg/kg, 24 mg/kg, or 48 mg/kg. Each treatment group comprised 8 animals (4 males and 4 females). For pharmacokinetic assessment, plasma samples were collected prior to dosing, and then at 5, 10, 20 and 30 min, 1, 2, 3, 6, 24 hours after dosing.
On Day 8 of the study, the animals that received oral BH at a dose of 12 mg/kg were administered the test betahistine composition intranasally at a dose of 40 mg betahistine dihydrochloride; the animals that received oral BH at a dose of 24 mg/kg were administered the test betahistine composition intranasally at a dose of 80 mg betahistine dihydrochloride; and the animals that received oral BH at a dose of 48 mg/kg were administered the test betahistine composition intranasally at a dose of 120 mg betahistine dihydrochloride. The test betahistine composition was delivered intranasally in a single dose via an Aptar nasal spray pump device at a total dose level of 40, 80 and 120 mg of betahistine dihydrochloride. Plasma samples were collected prior to dosing, and then at 5, 10, 20 and 30 min, 1, 2, 3, 6, 24 hours after dosing.
On Day 15 of the study, the animals that received oral BH at a dose of 12 mg/kg and the test betahistine composition intranasally at a dose of 40 mg betahistine dihydrochloride were administered a bolus intravenous injection of betahistine at a dose of 0.44 mg/kg. Plasma samples were collected prior to dosing, and then at 5, 10, 20 and 30 min, 1, 2, 3, 6, 24 hours after dosing.
Betahistine 13CD3 dihydrochloride and 2-pyridylacetic acid-D4 hydrochloride were used as respective internal standards. The calibration range for betahistine was 0.05-250 ng/mL and for 2-PAA 2.00-3000 ng/mL using a plasma sample volume of 0.50 mL.
For determination of betahistine, the method involved liquid-liquid extraction, for 2-PAA, the method involved protein precipitation. Plasma samples were prepared for betahistine by extraction under basic conditions with an organic solvent, then the organic phase was dried, reconstituted and transferred for LC/MS-MS analysis. […] Sample analysis was performed using reversed phase chromatography.

[1] = female, inhaled or intranasal, 6 mg/kg
[2] = female, inhaled or intranasal, 13 mg/kg

Q: What does the source list for `CNCCc1ccccn1` [betahistine]?
A: Cmax (oral BH 48 mg/kg, male, Day 1, read-out: Cmax): 102 ± 30.2 ng/mL; concentration at 0 h (both sexes, iv, 0.44 mg/kg): 0.0825 ng/mL; concentration at 5 min (both sexes, iv, 0.44 mg/kg): 50.9 ng/mL; concentration at 0.167 h (both sexes, iv, 0.44 mg/kg): 22 ng/mL; concentration at 0.333 h (both sexes, iv, 0.44 mg/kg): 7.03 ng/mL; concentration at 0.5 h (both sexes, iv, 0.44 mg/kg): 4.82 ng/mL; concentration at 1 h (both sexes, iv, 0.44 mg/kg): 0.308 ng/mL; concentration at 2 h (both sexes, iv, 0.44 mg/kg): 0.633 ng/mL; concentration at 3 h (both sexes, iv, 0.44 mg/kg): 0.0878 ng/mL; concentration at 6 h (both sexes, iv, 0.44 mg/kg): 0.849 ng/mL; concentration at 24 h (both sexes, iv, 0.44 mg/kg): 0.202 ng/mL; concentration at 0 h (both sexes, po, 12 mg/kg): 0 ng/mL; concentration at 5 min (both sexes, po, 12 mg/kg): 1.97 ng/mL; concentration at 0.167 h (both sexes, po, 12 mg/kg): 4.6 ng/mL; concentration at 0.333 h (both sexes, po, 12 mg/kg): 7.96 ng/mL; concentration at 0.5 h (both sexes, po, 12 mg/kg): 13.4 ng/mL; concentration at 1 h (both sexes, po, 12 mg/kg): 9.86 ng/mL; concentration at 2 h (both sexes, po, 12 mg/kg): 0.36 ng/mL; concentration at 3 h (both sexes, po, 12 mg/kg): 0.0181 ng/mL; concentration at 6 h (both sexes, po, 12 mg/kg): 0.00797 ng/mL; concentration at 24 h (both sexes, po, 12 mg/kg): 0.0105 ng/mL; concentration at 0 h (both sexes, po, 24 mg/kg): 0 ng/mL; concentration at 5 min (both sexes, po, 24 mg/kg): 5 ng/mL; concentration at 0.167 h (both sexes, po, 24 mg/kg): 5.15 ng/mL; concentration at 0.333 h (both sexes, po, 24 mg/kg): 15.5 ng/mL; concentration at 0.5 h (both sexes, po, 24 mg/kg): 14.9 ng/mL; concentration at 1 h (both sexes, po, 24 mg/kg): 31.9 ng/mL; concentration at 2 h (both sexes, po, 24 mg/kg): 2.83 ng/mL; concentration at 3 h (both sexes, po, 24 mg/kg): 1.16 ng/mL; concentration at 6 h (both sexes, po, 24 mg/kg): 0.21 ng/mL; concentration at 24 h (both sexes, po, 24 mg/kg): 0 ng/mL; concentration at 0 h (both sexes, po, 48 mg/kg): 0 ng/mL; concentration at 5 min (both sexes, po, 48 mg/kg): 12.1 ng/mL; concentration at 0.167 h (both sexes, po, 48 mg/kg): 22.5 ng/mL; concentration at 0.333 h (both sexes, po, 48 mg/kg): 12.9 ng/mL; concentration at 0.5 h (both sexes, po, 48 mg/kg): 26.5 ng/mL; concentration at 1 h (both sexes, po, 48 mg/kg): 56.5 ng/mL; concentration at 2 h (both sexes, po, 48 mg/kg): 21.5 ng/mL; concentration at 3 h (both sexes, po, 48 mg/kg): 6.57 ng/mL; concentration at 6 h (both sexes, po, 48 mg/kg): 0.439 ng/mL; concentration at 24 h (both sexes, po, 48 mg/kg): 0 ng/mL; AUC(0-t) (both sexes, IV bolus BH 0.44 mg/kg, sex-combined, Day 15, read-out: AUC(0-t)): 23 ng·h/mL; Absolute Bioavailability (% F), AUC(0-t)/D (oral 24 mg/kg vs IV bolus 0.44 mg/kg, sex-combined): 3.01%; AUC(0-t)/D [1]: 30.2 ± 9.31 hr*ng/mL/(mg/kg); Cmax [1]: 770 ng/mL; Cmax/D [1]: 128 ± 42.1 ng/mL/(mg/kg); Intranasal AUC/dose [1]: 30.2 (h · ng/mL)/(mg/kg); Tmax [1]: 4.8 min; AUC(0-t) (female, inhaled or intranasal, 6 mg/kg, AUC(0-6)): 180 ± 57.3 ng·h/mL; AUC(0-t) (female, inhaled or intranasal, 6 mg/kg, AUC(0-t)): 181 ± 55.8 ng·h/mL; AUC(0-inf) [2]: 480 ± 336 ng·h/mL; AUC(0-t)/D [2]: 33.8 ± 21.8 hr*ng/mL/(mg/kg); Cmax [2]: 1790 ng/mL; Cmax/D [2]: 138 ± 102 ng/mL/(mg/kg); Intranasal AUC/dose [2]: 33.8 (h · ng/mL)/(mg/kg); Tmax [2]: 8.4 min; AUC(0-t) (female, inhaled or intranasal, 13 mg/kg, AUC(0-6)): 432 ± 281 ng·h/mL; AUC(0-t) (female, inhaled or intranasal, 13 mg/kg, AUC(0-t)): 440 ± 283 ng·h/mL; AUC(0-inf) (female, inhaled or intranasal, 17.7 mg/kg): 302 ng·h/mL
